In publication PMC7252619 (PLoS ONE, 2020):
Where two headings read alike, the source gives them in different places.

Assays:
VEGFR2 = VEGFR2 (Homo sapiens, UniProt P35968); assay: Kinase activity test (ReactionBiology), % enzyme activity relative to DMSO; type: biochemical; design: purchased ReactionBiology; conditions: VEGFR2;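 also: VEGFR2 was one member of a ten-kinase screening panel testing marketed FDA-approved drugs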
CK1d = target: T1, CK1d (Homo sapiens, UniProt P48730); assay: as above; type: biochemical; conditions: CK1d
T1 construct: purchased ReactionBiology

[1] = 1 uM, Average, read-out: % Enzyme Activity (relative to DMSO controls), Average
[2] = 1 uM, replicate Data 1, read-out: % Enzyme Activity (relative to DMSO controls), Data 1
[3] = 1 uM, replicate Data 2, read-out: % Enzyme Activity (relative to DMSO controls), Data 2
[4] = 10 uM, Average, read-out: % Enzyme Activity (relative to DMSO controls), Average
[5] = 10 uM, replicate Data 1, read-out: % Enzyme Activity (relative to DMSO controls), Data 1
[6] = 10 uM, replicate Data 2, read-out: % Enzyme Activity (relative to DMSO controls), Data 2

T1 sequence (P48730 whole entry): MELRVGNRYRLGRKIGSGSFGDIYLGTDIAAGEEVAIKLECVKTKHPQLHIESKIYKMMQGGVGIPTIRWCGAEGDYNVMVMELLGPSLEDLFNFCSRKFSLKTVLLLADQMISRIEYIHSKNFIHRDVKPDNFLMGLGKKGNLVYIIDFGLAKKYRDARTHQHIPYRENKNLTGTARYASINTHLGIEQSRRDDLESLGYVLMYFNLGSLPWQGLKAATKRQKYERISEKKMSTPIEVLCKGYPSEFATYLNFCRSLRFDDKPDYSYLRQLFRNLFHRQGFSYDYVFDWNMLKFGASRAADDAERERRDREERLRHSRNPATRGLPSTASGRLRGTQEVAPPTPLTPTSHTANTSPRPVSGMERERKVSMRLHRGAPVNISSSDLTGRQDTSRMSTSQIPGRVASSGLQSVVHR
Sequence of VEGFR2 (P35968 20-1356): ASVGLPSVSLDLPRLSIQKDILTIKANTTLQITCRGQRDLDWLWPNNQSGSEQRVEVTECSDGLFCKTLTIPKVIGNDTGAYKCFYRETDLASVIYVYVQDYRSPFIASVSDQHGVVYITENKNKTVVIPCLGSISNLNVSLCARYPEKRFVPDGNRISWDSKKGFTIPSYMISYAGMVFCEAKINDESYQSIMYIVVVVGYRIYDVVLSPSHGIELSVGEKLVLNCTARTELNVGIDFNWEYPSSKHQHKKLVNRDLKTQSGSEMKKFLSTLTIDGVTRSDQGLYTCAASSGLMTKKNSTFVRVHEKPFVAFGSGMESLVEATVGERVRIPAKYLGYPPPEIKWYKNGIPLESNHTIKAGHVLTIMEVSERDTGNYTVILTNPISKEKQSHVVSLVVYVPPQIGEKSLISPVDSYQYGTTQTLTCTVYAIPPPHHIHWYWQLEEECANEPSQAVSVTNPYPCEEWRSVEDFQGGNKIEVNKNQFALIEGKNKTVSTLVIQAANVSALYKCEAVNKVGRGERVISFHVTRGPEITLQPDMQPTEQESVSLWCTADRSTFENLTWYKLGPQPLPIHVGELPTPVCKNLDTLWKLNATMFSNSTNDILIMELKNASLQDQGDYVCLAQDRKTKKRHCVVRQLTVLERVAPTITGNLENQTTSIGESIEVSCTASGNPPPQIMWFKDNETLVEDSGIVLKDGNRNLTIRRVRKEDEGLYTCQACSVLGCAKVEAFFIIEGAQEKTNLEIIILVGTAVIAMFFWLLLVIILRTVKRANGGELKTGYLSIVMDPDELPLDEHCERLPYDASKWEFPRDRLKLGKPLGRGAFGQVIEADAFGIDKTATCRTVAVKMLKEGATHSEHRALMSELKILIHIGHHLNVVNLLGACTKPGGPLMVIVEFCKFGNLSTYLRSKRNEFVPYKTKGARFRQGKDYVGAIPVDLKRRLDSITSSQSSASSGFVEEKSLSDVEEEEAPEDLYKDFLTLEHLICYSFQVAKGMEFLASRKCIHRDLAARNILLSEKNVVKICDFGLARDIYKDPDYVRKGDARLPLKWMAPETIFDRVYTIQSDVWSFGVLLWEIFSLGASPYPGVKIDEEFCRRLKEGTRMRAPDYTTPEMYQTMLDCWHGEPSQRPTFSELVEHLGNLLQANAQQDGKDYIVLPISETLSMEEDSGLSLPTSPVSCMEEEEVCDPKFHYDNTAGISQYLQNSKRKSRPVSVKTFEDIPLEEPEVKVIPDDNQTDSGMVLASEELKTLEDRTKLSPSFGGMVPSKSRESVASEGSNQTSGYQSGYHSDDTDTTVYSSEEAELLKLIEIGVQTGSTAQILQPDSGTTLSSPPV

% Enzyme Activity (relative to DMSO controls), Average (VEGFR2; 1 uM, Average) | % Enzyme Activity (relative to DMSO controls), Data 1 (VEGFR2; 1 uM, replicate Data 1) | % Enzyme Activity (relative to DMSO controls), Data 2 (VEGFR2; 1 uM, replicate Data 2) | % Enzyme Activity (relative to DMSO controls), Average (VEGFR2; 10 uM, Average) | % Enzyme Activity (relative to DMSO controls), Data 1 (VEGFR2; 10 uM, replicate Data 1) | % Enzyme Activity (relative to DMSO controls), Data 2 (VEGFR2; 10 uM, replicate Data 2) | % Enzyme Activity (relative to DMSO controls), Average (CK1d; 1 uM, Average) | % Enzyme Activity (relative to DMSO controls), Data 1 (CK1d; 1 uM, replicate Data 1) | % Enzyme Activity (relative to DMSO controls), Data 2 (CK1d; 1 uM, replicate Data 2) | % Enzyme Activity (relative to DMSO controls), Average (CK1d; 10 uM, Average) | % Enzyme Activity (relative to DMSO controls), Data 1 (CK1d; 10 uM, replicate Data 1) | % Enzyme Activity (relative to DMSO controls), Data 2 (CK1d; 10 uM, replicate Data 2) | Structure (SMILES) | further results
110.86% | 108.92% | 112.79% | 104.24% | 106.32% | 102.16% |  |  |  |  |  |  | Cn1c(=O)cc(N2CCC[C@@H](N)C2)n(Cc2ccccc2C#N)c1=O [Alogliptin] | 
 |  |  |  |  |  | 100.17% | 100.59% | 99.74% | 106.64% | 108.06% | 105.21% | CCCCC[C@H](O)/C=C/[C@H]1[C@H](O)CC(=O)[C@@H]1CCCCCCC(=O)O [Alprostadil] | 
99.13% | 103.06% | 95.2% | 96.01% | 95.11% | 96.91% |  |  |  |  |  |  | CC1(C)S[C@@H]2[C@H](NC(=O)[C@H](N)c3ccccc3)C(=O)N2[C@H]1C(=O)O [Ampicillin] | 
 |  |  |  |  |  | 107.55% |  |  |  |  |  | CC(C)CN(C[C@@H](O)[C@H](Cc1ccccc1)NC(=O)O[C@H]1CCOC1)S(=O)(=O)c1ccc(N)cc1 [Amprenavir] | 
106.10% | 100.57% | 111.63% | 106.53% | 106.16% | 106.89% |  |  |  |  |  |  | CC(C)(Oc1ccc(CCNC(=O)c2ccc(Cl)cc2)cc1)C(=O)O [Bezafibrate] | 
 |  |  |  |  |  |  |  |  | 101.06% |  |  | CC(C)Nc1cccnc1N1CCN(C(=O)c2cc3cc(NS(C)(=O)=O)ccc3[nH]2)CC1 [Delavirdine] | 
96.96% |  |  | 89.29% |  |  |  |  |  | 133.63% |  |  | CNCCCN1c2ccccc2CCc2ccccc21 [Desipramine] | 
 |  |  |  |  |  | 95.10% | 99.58% | 90.62% | 97.15% | 96.56% | 97.73% | CC1=Nc2ccc(Cl)cc2S(=O)(=O)N1 [Diazoxide] | 
110.51% | 112.09% | 108.92% | 100.16% | 99.85% | 100.47% |  |  |  |  |  |  | COc1cccc2c1C(=O)c1c(O)c3c(c(O)c1C2=O)C[C@@](O)(C(=O)CO)C[C@@H]3O[C@H]1C[C@H](N)[C@H](O)[C@H](C)O1 [Doxorubicin] | 
106.40% | 108.92% | 103.87% | 104.79% | 105.29% | 104.29% |  |  |  |  |  |  | C[C@]12CC[C@@H]3c4ccc(O)cc4CC[C@H]3[C@@H]1CCC2=O [Estrone] | 
113.72% | 118.24% | 109.2% | 105.92% | 109.47% | 102.36% | 104.91% | 106.12% | 103.69% | 106.01% | 110.21% | 101.8% | O=c1[nH]cc(F)c(=O)[nH]1 [Fluorouracil] | 
 |  |  |  |  |  | 106.25% | 107.91% | 104.59% | 89.28% | 92.55% | 86% | CCC1=C(C)CN(C(=O)NCCc2ccc(S(=O)(=O)NC(=O)N[C@H]3CC[C@H](C)CC3)cc2)C1=O [Glimepiride] | 
111.69% | 111.85% | 111.52% | 106.65% | 105.86% | 107.43% |  |  |  |  |  |  | CC(=O)[C@]1(O)Cc2c(O)c3c(c(O)c2[C@@H](O[C@H]2C[C@H](N)[C@H](O)[C@H](C)O2)C1)C(=O)c1ccccc1C3=O [Idarubicin] | 
105.43% | 105.61% | 105.25% | 102.46% | 106.14% | 98.78% | 102.15% | 102.08% | 102.21% | 95.39% | 98.78% | 92% | COc1ccc2c(c1)c(CC(=O)O)c(C)n2C(=O)c1ccc(Cl)cc1 [Iomethacin] | 
106.32% | 107.12% | 105.51% | 105.91% | 107.3% | 104.52% | 106.53% | 105.95% | 107.11% | 163.39% | 106.22% | 220.55% | CN[C@H]1CC[C@@H](c2ccc(Cl)c(Cl)c2)c2ccccc21 [Sertraline] | 
 |  |  |  |  |  | 110.04% | 103.65% | 116.43% | 118.78% | 119.29% | 118.26% | CCCCNc1ccc(C(=O)OCCN(C)C)cc1 [Tetracaine] | 
 |  |  |  |  |  |  |  |  |  |  |  | Cc1ccc(C(=O)c2cc(O)c(O)c([N+](=O)[O-])c2)cc1 [Tolcapone, reference compound] | remaining activity at 1 µM (CK1d; [1]): 91.7%; remaining activity at 1 µM (CK1d; [2]): 91.5%; remaining activity at 1 µM (CK1d; [3]): 91.9%; remaining activity at 10 µM (CK1d; [4]): 35.6%; remaining activity at 10 µM (CK1d; [5]): 33.2%; remaining activity at 10 µM (CK1d; [6]): 38%; remaining activity at 1 µM (CK1d; compound 1μM, relative to DMSO controls, read-out: % Enzyme activity at 1μM): 91.7%; remaining activity at 10 µM (CK1d; compound 10μM, relative to DMSO controls, read-out: % Enzyme activity at 10μM): 35.6%
 |  |  |  |  |  |  |  |  |  |  |  | CCCc1nc(C)c2c(=O)[nH]c(-c3cc(S(=O)(=O)N4CCN(CC)CC4)ccc3OCC)nn12 [Vardenafil] | remaining activity at 1 µM (CK1d; [1]): 102%; remaining activity at 1 µM (CK1d; [2]): 100%; remaining activity at 1 µM (CK1d; [3]): 104%; remaining activity at 10 µM (CK1d; [4]): 110%; remaining activity at 10 µM (CK1d; [5]): 107%; remaining activity at 10 µM (CK1d; [6]): 112%
 |  |  |  |  |  |  |  |  |  |  |  | CS(=O)(=O)c1ccc(C(=O)Nc2ccc(Cl)c(-c3ccccn3)c2)c(Cl)c1 [Vismodegib] | remaining activity at 1 µM (VEGFR2; [1]): 103%; remaining activity at 1 µM (VEGFR2; [2]): 103%; remaining activity at 1 µM (VEGFR2; [3]): 103%; remaining activity at 10 µM (VEGFR2; [4]): 91.1%; remaining activity at 10 µM (VEGFR2; [5]): 97.8%; remaining activity at 10 µM (VEGFR2; [6]): 84.5%

Structure (SMILES) | % Enzyme Activity (relative to DMSO controls), Average (VEGFR2; 1 uM, Average) | % Enzyme Activity (relative to DMSO controls), Data 1 (VEGFR2; 1 uM, replicate Data 1) | % Enzyme Activity (relative to DMSO controls), Data 2 (VEGFR2; 1 uM, replicate Data 2) | % Enzyme Activity (relative to DMSO controls), Average (VEGFR2; 10 uM, Average) | % Enzyme Activity (relative to DMSO controls), Data 1 (VEGFR2; 10 uM, replicate Data 1) | % Enzyme Activity (relative to DMSO controls), Data 2 (VEGFR2; 10 uM, replicate Data 2) | % Enzyme Activity (relative to DMSO controls), Average (CK1d; 1 uM, Average) | % Enzyme Activity (relative to DMSO controls), Data 1 (CK1d; 1 uM, replicate Data 1) | % Enzyme Activity (relative to DMSO controls), Data 2 (CK1d; 1 uM, replicate Data 2) | % Enzyme Activity (relative to DMSO controls), Average (CK1d; 10 uM, Average) | % Enzyme Activity (relative to DMSO controls), Data 1 (CK1d; 10 uM, replicate Data 1) | % Enzyme Activity (relative to DMSO controls), Data 2 (CK1d; 10 uM, replicate Data 2) | further results
CO[C@@]12[C@H](COC(N)=O)C3=C(C(=O)C(C)=C(N)C3=O)N1C[C@@H]1N[C@@H]12 [Mitomycin] |  |  |  |  |  |  | 98.48% | 100.68% | 96.28% | 158.59% | 209.38% | 107.8% | 
